A word on the IC50: it is the concentration that inhibits the measured activity by half. The term melting point denotes the temperature of the solid-liquid transition.

One data set concerns MCF-7. Description: Cytotoxicity MTS assay, 72 h. Type of data set: cell-based, human. As to conditions: Homo sapiens, MCF7; MCF-7; 72 h; MTS. The text has this:
(§1) The human colon carcinoma cell line HCT116 wild type (p53^+/+), human breast carcinoma cell line MCF-7 and glioblastoma cell line Hs683 were obtained from ATCC. The glioma cell line U-251 was purchased from Sigma Aldrich and the normal human fibroblast cell lines NHDF from PromoCell. The human colon cancer cell line HCT116 with a p53 deletion (p53^-/-) was kindly provided by Prof. M. Rusin from the Maria Sklodowska-Curie Memorial Cancer Centre and Institute of Oncology in Gliwice, Poland. Cells were grown as monolayer cultures in Dulbecco’s modified Eagle’s medium with an antibiotic gentamicin (200 μL/100 mL medium) in 75 cm^2 flasks (Nunc). DMEM for HCT116, MCF-7, U-251, Hs683 were supplemented with 12% heat-inactivated fetal bovine serum (Sigma) and for NHDF with 15% non-inactivated fetal bovine serum (Sigma). All the cell lines were cultured under standard conditions at 37°C in a humidified atmosphere at 5% CO2.
(§2) The cells were seeded in 96-well plates (Nunc) at a density of 5,000 cells/well (HCT116, MCF-7, U-251, Hs683) and 4,000 cells/well (NHDF) and incubated at 37°C for 24 h. The assay was performed following a 72 h incubation with varying concentrations of the compounds that were tested. Then, 20 μL of The CellTiter 96®AQueous One Solution-MTS (Promega) solution was added to each well (with 100 μL DMEM without phenol red) and incubated for 1 h at 37°C. The optical densities of the samples were analyzed at 490 nm using a multi-plate reader (Synergy 4, Bio Tek). Results were expressed as a percentage of the control and calculated as the inhibitory concentration (IC50) values using GraphPad Prism 5. The IC50 parameter was defined as the compound concentration that was necessary to reduce the proliferation of cells to 50% of the untreated control. Each individual compound was tested in triplicate in a single experiment with each experiment being repeated four to five times.

A further data set relates to Hs683. The experiment in a line: Cytotoxicity MTS assay, 72 h. The conditions noted are these: Homo sapiens, Hs 683; Hs683; 72 h; MTS. Type of data set: cell-based, human.
From the text: as §1, §2
On the technique in general: Tetrazolium assays rely on reduction of a dye to a coloured formazan, in cell work by metabolically active cells.

The subject of the next data set is HCT116 p53^+/+. The experiment in a line: Cytotoxicity MTS assay, 72 h. Type of data set: cell-based, human. The conditions noted are these: Homo sapiens, HCT-116; HCT116 p53^+/+; 72 h; MTS.
From the text: as §1, §2

In the next data set the test system is HCT116 p53^-/-. Description: Cytotoxicity MTS assay, 72 h. As to conditions: Homo sapiens, HCT-116; HCT116 p53^-/-; 72 h; MTS. The format is cell-based, human.
From the text: as §1, §2

The subject of another data set is U-251. Description: Cytotoxicity MTS assay, 72 h. The conditions noted are these: Homo sapiens; U-251; 72 h; MTS. The format is cell-based, human.
From the text: as §1, §2

For another data set, the system named is NHDF. Description: Cytotoxicity MTS assay, 72 h. The conditions noted are these: Homo sapiens, NHDF normal fibroblasts. The format is cell-based.
From the text: as §1, §2

For data set [1] the following is noted: tabulated value; cited from earlier work.

`Nc1cccnc1C=NNC(=S)N1CCN(c2ccccc2)CC1` [L^1, N’-[(3-aminopyridin-2-yl)methylidene]-4-phenylpiperazine-1-carbothiohydrazide] registered a melting point of 189 to 190 °C. In addition, the IC50 in the data set with MCF-7 was found to be 532 ± 145 nM. The IC50 with Hs683 worked out at 1440 ± 358 nM. For the same compound, the IC50 with HCT116 p53^+/+ is 1520 ± 445 nM. In addition, the IC50 in the data set with HCT116 p53^-/- was found to be 128 ± 12 nM. Also, the concentration for half-maximal inhibition (IC50) in the data set with U-251 was determined as 403 ± 90 nM. Besides, the IC50 in the data set with NHDF is greater than 25000 nM.
For `Nc1cccnc1C=NNC(=S)N1CCN(c2ccc(F)cc2)CC1` [L^2, N’-[(3-aminopyridin-2-yl)methylidene]-4-(4-fluorophenyl)piperazine-1-carbothiohydrazide], the melting point lay in the range of 210 to 211 °C. In addition, the IC50 in the data set on MCF-7 is 360 ± 111 nM. In the data set with Hs683, the IC50 was 2490 ± 512 nM. Moreover, in the data set on HCT116 p53^+/+, the IC50 is 526 ± 77 nM. In addition, the IC50 with HCT116 p53^-/- was found to be 152 ± 74 nM. Also, the IC50 in the data set on U-251 turned out to be 887 ± 158 nM. Moreover, the IC50 with NHDF is greater than 25000 nM.
The compound `COc1ccc(N2CCN(C(=S)NN=Cc3ncccc3N)CC2)cc1` [L^4, N’-[(3-aminopyridin-2-yl)methylidene]-4-(4-methoxyphenyl)piperazine-1-carbothiohydrazide] had a melting point of 195 to 196 °C. For the same compound, the 50% inhibitory concentration (IC50) in the data set with MCF-7 came to 424 ± 149 nM. Besides, in the data set on Hs683, the half-inhibitory concentration (IC50) amounted to 4460 ± 954 nM. Moreover, in the data set with HCT116 p53^+/+, the IC50 was found to be 1330 ± 209 nM. Further, in the data set with HCT116 p53^-/-, the IC50 was found to be 185 ± 88 nM. Also, in the data set on U-251, the IC50 was determined as 649 ± 170 nM. The IC50 in the data set on NHDF is greater than 25000 nM.
Consider `N#Cc1ccc(N2CCN(C(=S)NN=Cc3ncccc3N)CC2)cc1` [L^5, N’-[(3-aminopyridin-2-yl)methylidene]-4-(4-cyanophenyl)piperazine-1-carbothiohydrazide], for which the melting point fell in the range of 209 to 210 °C. Also, in the data set with MCF-7, the IC50 is 3810 ± 1020 nM. In addition, the IC50 in the data set with Hs683 is 10000 ± 2640 nM. Further, the half-maximal inhibitory concentration (IC50) with HCT116 p53^+/+ is 1450 ± 452 nM. For the same compound, the IC50 in the data set with HCT116 p53^-/- was 746 ± 354 nM. Further, in the data set with U-251, the IC50 stood at 2570 ± 675 nM. Also, in the data set with NHDF, the IC50 was greater than 25000 nM.
In turn, `Nc1cccnc1C=NNC(=S)N1CCN(c2ccc(C(F)(F)F)cc2[N+](=O)[O-])CC1` [L^6, N’-[(3-aminopyridin-2-yl)methylidene]-4-[2-nitro-4-(trifluoromethyl)phenyl]piperazine-1-carbothiohydrazide] registered a melting point of 179 to 180 °C. In addition, in the data set on MCF-7, the IC50 worked out at 470 ± 97 nM. Moreover, the IC50 in the data set on Hs683 amounted to 1890 ± 812 nM. For the same compound, the concentration for half-maximal inhibition (IC50) with HCT116 p53^+/+ came to 139 ± 16 nM. The IC50 in the data set with HCT116 p53^-/- amounted to 270 ± 7 nM. For the same compound, the IC50 in the data set on U-251 amounted to 381 ± 42 nM. For the same compound, the IC50 in the data set with NHDF was greater than 25000 nM.
The compound `CC(C)(C)OC(=O)N1CCN(C(=S)NN=Cc2ncccc2N)CC1` [L^7, tert-butyl 4-({2-[(3-aminopyridin-2-yl)methylidene]hydrazinyl}carbonothioyl)piperazine-1-carboxylate] returned a melting point of 193 to 194 °C. Besides, the IC50 in the data set with MCF-7 was 2540 ± 400 nM. Besides, the IC50 with Hs683 came to 4620 ± 1030 nM. In addition, in the data set on HCT116 p53^+/+, the IC50 was 762 ± 238 nM. Moreover, the IC50 with HCT116 p53^-/- was found to be 1130 ± 49 nM. Besides, the IC50 in the data set with U-251 came out at 3080 ± 1270 nM. Further, in the data set with NHDF, the IC50 is greater than 25000 nM.
In the case of `Nc1cccnc1C=NNC(=S)N1CCN(c2ccccn2)CC1` [L^8, N’-[(3-aminopyridin-2-yl)methylidene]-4-(pyridin-2-yl)piperazine-1-carbothiohydrazide], the melting point is 210 to 211 °C. In addition, the IC50 in the data set with MCF-7 was determined as 1120 ± 113 nM. In the data set with Hs683, the IC50 turned out to be 1160 ± 307 nM. In addition, the IC50 in the data set on HCT116 p53^+/+ came to 1900 ± 292 nM. Moreover, in the data set on HCT116 p53^-/-, the half-inhibitory concentration (IC50) worked out at 139 ± 20 nM. Further, the IC50 with U-251 was 1070 ± 280 nM. In addition, the concentration for half-maximal inhibition (IC50) in the data set on NHDF is greater than 25000 nM.
For `Nc1cccnc1C=NNC(=S)N1CCN(c2ccc(C(F)(F)F)cn2)CC1` [L^9, N’-[(3-aminopyridin-2-yl)methylidene]-4-[5-(trifluoromethyl)pyridin-2-yl]piperazine-1-carbothiohydrazide], the IC50 in the data set with MCF-7 is 204 ± 24 nM; with Hs683, 844 ± 238 nM; with HCT116 p53^+/+ it was 422 ± 113 nM; in the data set on HCT116 p53^-/-, 123 ± 61 nM; in the data set on U-251, 277 ± 58 nM; in the data set on NHDF, greater than 25000 nM.
Consider `Nc1cccnc1C=NNC(=S)N1CCN(c2ncc(C(F)(F)F)cc2Cl)CC1` [L^10, N’-[(3-aminopyridin-2-yl)methylidene]-4-[3-chloro-5-(trifluoromethyl)pyridin-2-yl]piperazine-1-carbothiohydrazide], for which the melting point lay within 199 to 200 °C. Moreover, the IC50 in the data set on MCF-7 came out at 258 ± 40 nM. In addition, in the data set with Hs683, the IC50 is 195 ± 21 nM. In addition, the IC50 with HCT116 p53^+/+ is 170 ± 15 nM. The IC50 in the data set with HCT116 p53^-/- stood at 159 ± 11 nM. In addition, the IC50 in the data set with U-251 was 137 ± 16 nM. Also, the half-inhibitory concentration (IC50) with NHDF was greater than 25000 nM.
`Nc1cccnc1C=NNC(=S)N1CCN(c2ncccn2)CC1` [L^11, N’-[(3-aminopyridin-2-yl)methylidene]-4-(pyrimidin-2-yl)piperazine-1-carbothiohydrazide]: the melting point lay in the range of 198 to 199 °C. Also, in the data set on MCF-7, the IC50 is 1730 ± 388 nM. For the same compound, in the data set with Hs683, the 50% inhibitory concentration (IC50) came to 2840 ± 581 nM. For the same compound, the IC50 with HCT116 p53^+/+ is 668 ± 45 nM. Moreover, the IC50 with HCT116 p53^-/- stood at 650 ± 55 nM. The IC50 in the data set with U-251 is 1270 ± 374 nM. In the data set on NHDF, the IC50 was greater than 25000 nM.
Compound `Nc1cccnc1C=NNC(=S)N1CCN(c2cnccn2)CC1` [L^12, N’-[(3-aminopyridin-2-yl)methylidene]-4-(pyrazin-2-yl)piperazine-1-carbothiohydrazide] returned a melting point of 217 to 218 °C. The IC50 in the data set on MCF-7 was found to be 2220 ± 638 nM. Moreover, in the data set on Hs683, the IC50 came out at 2600 ± 237 nM. In the data set on HCT116 p53^+/+, the IC50 came to 435 ± 108 nM. Besides, the IC50 with HCT116 p53^-/- is 342 ± 42 nM. In addition, in the data set with U-251, the IC50 worked out at 743 ± 109 nM. In addition, in the data set with NHDF, the IC50 is greater than 25000 nM.
Take `c1ccncc1` [pyridine]: the logK in data set [1] is reported as 5.23.

(Values after article PMC5898707, “Piperazinyl fragment improves anticancer activity of Triapine” (PLoS ONE, 2018).)
